The NIST ThermoML archive (doi:10.1016/j.jct.2019.02.011)

Experiment: xn = mol fraction of the nth substance listed
Conditions: Liquid, Vibrating tube method

COC(=O)OC [dimethyl carbonate] + CO
Conditions	mass density [kg/m3]
288.15 K, 25000 kPa, x1 = 0.6993	1051
288.15 K, 25000 kPa, x1 = 0.7496	1059.86
288.15 K, 25000 kPa, x1 = 0.799	1067.94
288.15 K, 25000 kPa, x1 = 0.837	1073.92
288.15 K, 25000 kPa, x1 = 0.9093	1084.6
288.15 K, 25000 kPa, x1 = 0.9239	1086.65
288.15 K, 25000 kPa, x1 = 0.9575	1091.29
288.15 K, 25000 kPa, x1 = 0.9861	1095.14
288.15 K, 25000 kPa, x1 = 1	1096.99
288.15 K, 30000 kPa, x1 = 0.0253	834.68
288.15 K, 30000 kPa, x1 = 0.0503	848.4
288.15 K, 30000 kPa, x1 = 0.0745	861.06
288.15 K, 30000 kPa, x1 = 0.101	874.32
288.15 K, 30000 kPa, x1 = 0.1502	897.03
288.15 K, 30000 kPa, x1 = 0.2059	920.43
288.15 K, 30000 kPa, x1 = 0.25	937.36
288.15 K, 30000 kPa, x1 = 0.3004	955.1
288.15 K, 30000 kPa, x1 = 0.3426	968.8
288.15 K, 30000 kPa, x1 = 0.3984	985.59
288.15 K, 30000 kPa, x1 = 0.4514	1000.22
288.15 K, 30000 kPa, x1 = 0.5054	1013.92
288.15 K, 30000 kPa, x1 = 0.5509	1024.6
288.15 K, 30000 kPa, x1 = 0.6002	1035.34
288.15 K, 30000 kPa, x1 = 0.6469	1044.75
288.15 K, 30000 kPa, x1 = 0.6993	1054.61
288.15 K, 30000 kPa, x1 = 0.7496	1063.48
288.15 K, 30000 kPa, x1 = 0.799	1071.56
288.15 K, 30000 kPa, x1 = 0.837	1077.55
288.15 K, 30000 kPa, x1 = 0.9093	1088.24
288.15 K, 30000 kPa, x1 = 0.9239	1090.28
288.15 K, 30000 kPa, x1 = 0.9575	1094.93
288.15 K, 30000 kPa, x1 = 0.9861	1098.78
288.15 K, 30000 kPa, x1 = 1	1100.63
288.15 K, 35000 kPa, x1 = 0.0253	838.22
288.15 K, 35000 kPa, x1 = 0.0503	851.95
288.15 K, 35000 kPa, x1 = 0.0745	864.56
288.15 K, 35000 kPa, x1 = 0.101	877.83
288.15 K, 35000 kPa, x1 = 0.1502	900.56
288.15 K, 35000 kPa, x1 = 0.2059	923.97
288.15 K, 35000 kPa, x1 = 0.25	940.91
288.15 K, 35000 kPa, x1 = 0.3004	958.61
288.15 K, 35000 kPa, x1 = 0.3426	972.32
288.15 K, 35000 kPa, x1 = 0.3984	989.12
288.15 K, 35000 kPa, x1 = 0.4514	1003.71
288.15 K, 35000 kPa, x1 = 0.5054	1017.42
288.15 K, 35000 kPa, x1 = 0.5509	1028.11
288.15 K, 35000 kPa, x1 = 0.6002	1038.85
288.15 K, 35000 kPa, x1 = 0.6469	1048.27
288.15 K, 35000 kPa, x1 = 0.6993	1058.08
288.15 K, 35000 kPa, x1 = 0.7496	1066.96
288.15 K, 35000 kPa, x1 = 0.799	1075.04
288.15 K, 35000 kPa, x1 = 0.837	1080.99
288.15 K, 35000 kPa, x1 = 0.9093	1091.68
288.15 K, 35000 kPa, x1 = 0.9239	1093.73
288.15 K, 35000 kPa, x1 = 0.9575	1098.38
288.15 K, 35000 kPa, x1 = 0.9861	1102.23
288.15 K, 35000 kPa, x1 = 1	1104.08
288.15 K, 40000 kPa, x1 = 0.0253	841.6
288.15 K, 40000 kPa, x1 = 0.0503	855.33
288.15 K, 40000 kPa, x1 = 0.0745	867.95
288.15 K, 40000 kPa, x1 = 0.101	881.23
288.15 K, 40000 kPa, x1 = 0.1502	903.97
288.15 K, 40000 kPa, x1 = 0.2059	927.4
288.15 K, 40000 kPa, x1 = 0.25	944.34
288.15 K, 40000 kPa, x1 = 0.3004	962.05
288.15 K, 40000 kPa, x1 = 0.3426	975.72
288.15 K, 40000 kPa, x1 = 0.3984	992.53
288.15 K, 40000 kPa, x1 = 0.4514	1007.07
288.15 K, 40000 kPa, x1 = 0.5054	1020.79
288.15 K, 40000 kPa, x1 = 0.5509	1031.49
288.15 K, 40000 kPa, x1 = 0.6002	1042.19
288.15 K, 40000 kPa, x1 = 0.6469	1051.61
288.15 K, 40000 kPa, x1 = 0.6993	1061.43
288.15 K, 40000 kPa, x1 = 0.7496	1070.31
288.15 K, 40000 kPa, x1 = 0.799	1078.4
288.15 K, 40000 kPa, x1 = 0.837	1084.34
288.15 K, 40000 kPa, x1 = 0.9093	1094.99
288.15 K, 40000 kPa, x1 = 0.9239	1097.04
288.15 K, 40000 kPa, x1 = 0.9575	1101.69
288.15 K, 40000 kPa, x1 = 0.9861	1105.55
288.15 K, 40000 kPa, x1 = 1	1107.4
293.15 K, 100 kPa, x1 = 0.0253	805.71
293.15 K, 100 kPa, x1 = 0.0503	819.38
293.15 K, 100 kPa, x1 = 0.0745	831.94
293.15 K, 100 kPa, x1 = 0.101	844.99
293.15 K, 100 kPa, x1 = 0.1502	867.43
293.15 K, 100 kPa, x1 = 0.2059	890.58
293.15 K, 100 kPa, x1 = 0.25	907.39
293.15 K, 100 kPa, x1 = 0.3004	925.01
293.15 K, 100 kPa, x1 = 0.3426	938.66
293.15 K, 100 kPa, x1 = 0.3984	955.38
293.15 K, 100 kPa, x1 = 0.4514	969.9
293.15 K, 100 kPa, x1 = 0.5054	983.54
293.15 K, 100 kPa, x1 = 0.5509	994.14
293.15 K, 100 kPa, x1 = 0.6002	1004.83
293.15 K, 100 kPa, x1 = 0.6469	1014.25
293.15 K, 100 kPa, x1 = 0.6993	1024.07
293.15 K, 100 kPa, x1 = 0.7496	1032.91
293.15 K, 100 kPa, x1 = 0.799	1041.06
293.15 K, 100 kPa, x1 = 0.837	1047.02
293.15 K, 100 kPa, x1 = 0.9093	1057.71
293.15 K, 100 kPa, x1 = 0.9239	1059.75
293.15 K, 100 kPa, x1 = 0.9575	1064.38
293.15 K, 100 kPa, x1 = 0.9861	1068.22
293.15 K, 100 kPa, x1 = 1	1070.06
293.15 K, 5000 kPa, x1 = 0.0253	810.46
293.15 K, 5000 kPa, x1 = 0.0503	824.13
293.15 K, 5000 kPa, x1 = 0.0745	836.69
293.15 K, 5000 kPa, x1 = 0.101	849.75
293.15 K, 5000 kPa, x1 = 0.1502	872.18
293.15 K, 5000 kPa, x1 = 0.2059	895.35
293.15 K, 5000 kPa, x1 = 0.25	912.16
293.15 K, 5000 kPa, x1 = 0.3004	929.73
293.15 K, 5000 kPa, x1 = 0.3426	943.38
293.15 K, 5000 kPa, x1 = 0.3984	960.11
293.15 K, 5000 kPa, x1 = 0.4514	974.63
293.15 K, 5000 kPa, x1 = 0.5054	988.23
293.15 K, 5000 kPa, x1 = 0.5509	998.83
293.15 K, 5000 kPa, x1 = 0.6002	1009.48
293.15 K, 5000 kPa, x1 = 0.6469	1018.9
293.15 K, 5000 kPa, x1 = 0.6993	1028.72
293.15 K, 5000 kPa, x1 = 0.7496	1037.51
293.15 K, 5000 kPa, x1 = 0.799	1045.66
293.15 K, 5000 kPa, x1 = 0.837	1051.63
293.15 K, 5000 kPa, x1 = 0.9093	1062.27
293.15 K, 5000 kPa, x1 = 0.9239	1064.31
293.15 K, 5000 kPa, x1 = 0.9575	1068.94
293.15 K, 5000 kPa, x1 = 0.9861	1072.78
293.15 K, 5000 kPa, x1 = 1	1074.62
293.15 K, 10000 kPa, x1 = 0.0253	814.95
293.15 K, 10000 kPa, x1 = 0.0503	828.58
293.15 K, 10000 kPa, x1 = 0.0745	841.14
293.15 K, 10000 kPa, x1 = 0.101	854.2
293.15 K, 10000 kPa, x1 = 0.1502	876.65
293.15 K, 10000 kPa, x1 = 0.2059	899.82
